According to US20180012623A1, “Ionic Liquid, Lubricant, and Magnetic Recording Medium” (Dexerials Corporation, priority 2016, published 2018):
Where two headings read alike, the source gives them in different places.

How the values were obtained:
[1] = Measurement of thermal stability (TG/DTA weight reduction temperature); type: physicochemical; conditions: for Weight reduction temperature 5% / Weight reduction temperature 10% / Weight reduction temperature 20%: TG/DTA, 30° C. to 600° C., 10° C./min, air 200 mL/min; for Weight reduction temperatures higher than those of Z-TETRAOL by: compared with Z-TETRAOL (Comparative Example 7C); for Weight reduction temperatures higher than those of Z-DOL by: compared with perfluoropolyether Z-DOL (Comparative Example 6C)
[2] = in acetonitrile; cited from earlier work
[3] = Solubility test of ionic liquids in Vertrel XF and n-hexane (visual observation)
Experimental: To a predetermined amount of Vertrel XF or n-hexane, the ionic liquid was added. Ultrasonic waves were applied to the resultant mixture for 5 minutes, followed by leaving the mixture to stand for 1 day. The solubility was visually observed.
After applying ultrasonic waves to the resultant for 5 minutes, the resultant was left to stand for 1 day. Thereafter, the solubility was visually observed and evaluated based on the following evaluation criteria. […] Similarly, after applying ultrasonic waves to the resultant for 5 minutes, the resultant was left to stand for 1 day. Thereafter, the solubility was visually observed and evaluated based on the following evaluation criteria.
Note that, the solubility was visually observed, and it was judged as soluble when it was transparent. Moreover, it was judged as not soluble (insoluble) when it was opaque or insoluble components were observed.
The results are presented in Table 2. • [Evaluation Criteria]
• 0.2% by mass or greater:
Soluble with addition of 0.2 parts by mass • Less than 0.2% by mass:
Insoluble with addition of 0.2 parts by mass
<<n-Hexane>> • 0.5% by mass or greater:
Soluble with addition of 0.5 parts by mass • Less than 0.5% by mass:
Insoluble with addition of 0.5 parts by mass

[4] = Vertrel XF [CF3(CHF)2CF2CF3], 25° C., 0.2 parts by mass added to 100 parts by mass, ultrasonic 5 minutes, left 1 day, visual
[5] = n-hexane, 25° C., 0.5 parts by mass added to 100 parts by mass, ultrasonic 5 minutes, left 1 day, visual

nonafluorobutanesulfonic acid-1-octadecylimidazolium [1A, reference compound]
Weight reduction temperature 5% [1]: 349.3 °C
Weight reduction temperature 10% [1]: 375.0 °C
Weight reduction temperature 20% [1]: 397.5 °C

nonafluorobutanesulfonic acid-1-octadecyl-2-undecylimidazolium [Ex. 3A]
Weight reduction temperature 5% [1]: 328.3 °C
Weight reduction temperature 10% [1]: 368.1 °C
Weight reduction temperature 20% [1]: 396.7 °C
Weight reduction temperatures higher than those of Z-TETRAOL by [1]: ≥ 80 °C
Weight reduction temperatures higher than those of Z-DOL by [1]: ≥ 170 °C

pentadecafluorooctanoic acid octadecyl ammonium [5A, reference compound]
Weight reduction temperature 5% [1]: 206.9 °C
Weight reduction temperature 10% [1]: 215.8 °C
Weight reduction temperature 20% [1]: 223.4 °C
Thermal stability (in words) ([1]; summary of Table 3): lacking in thermal stability

F[B-](F)(F)F.[H+] [tetrafluoroboric acid]
pKa [2]: 1.8

perfluorocyclopropane sulfoimide
pKa [2]: −0.8

O=S(=O)(NS(=O)(=O)C(F)(F)C(F)(F)C(F)(F)C(F)(F)F)C(F)(F)C(F)(F)C(F)(F)C(F)(F)F [bis(nonafluorobutanesulfonyl)imide]
pKa [2]: 0.0

CCCCCCCCCCCCCCCCCCn1ccnc1CCCCCCCCCCC.O=S(=O)(NS(=O)(=O)C(F)(F)C(F)(F)C(F)(F)C(F)(F)F)C(F)(F)C(F)(F)C(F)(F)C(F)(F)F [Ex. 4A, bis(nonafluorobutanesulfonyl)imide-1-octadecyl-2-undecylimidazolium]
Weight reduction temperature 5% [1]: 329.1 °C
Weight reduction temperature 10% [1]: 362.4 °C
Weight reduction temperature 20% [1]: 388.4 °C
Weight reduction temperatures higher than those of Z-TETRAOL by [1]: ≥ 90 °C
Weight reduction temperatures higher than those of Z-DOL by [1]: ≥ 160 °C

nonafluorobutanesulfonic acid-2-heptadecylimidazole [3A, reference compound]
Weight reduction temperature 5% [1]: 365.4 °C
Weight reduction temperature 10% [1]: 390.5 °C
Weight reduction temperature 20% [1]: 414.3 °C

CCCCCCCCCCCCn1ccnc1CCCCCCCCCCC.O=S(=O)(NS(=O)(=O)C(F)(F)C(F)(F)C(F)(F)C(F)(F)F)C(F)(F)C(F)(F)C(F)(F)C(F)(F)F [Ex. 2A, bis(nonafluorobutanesulfonyl)imide-1-dodecyl-2-undecylimidazolium]
Weight reduction temperature 5% [1]: 337.7 °C
Weight reduction temperature 10% [1]: 361.6 °C
Weight reduction temperature 20% [1]: 383.8 °C
Weight reduction temperatures higher than those of Z-TETRAOL by [1]: ≥ 100 °C
Weight reduction temperatures higher than those of Z-DOL by [1]: ≥ 160 °C
Solubility, Fluorine-based solvent [3, 4]: ≥ 0.2% by mass
Solubility, Fluorine-based solvent ([3]; Vertrel XF [CF3(CHF)2CF2CF3], 25° C., 0.2 parts by mass added to 100 parts by mass, ultrasonic 5 minutes, left 1 day, visual, listed as Example 2A): ≥ 0.2 % by mass
Solubility, n-Hexane [3, 5]: ≥ 0.5% by mass
Solubility, n-Hexane ([3]; n-hexane, 25° C., 0.5 parts by mass added to 100 parts by mass, ultrasonic 5 minutes, left 1 day, visual, listed as Example 2A): ≥ 0.5 % by mass

nonafluorobutanesulfonic acid-1-dodecyl-2-undecylimidazolium [Ex. 1A]
Weight reduction temperature 5% [1]: 349.4 °C
Weight reduction temperature 10% [1]: 374.1 °C
Weight reduction temperature 20% [1]: 398.9 °C
Weight reduction temperatures higher than those of Z-TETRAOL by [1]: ≥ 100 °C
Weight reduction temperatures higher than those of Z-DOL by [1]: ≥ 170 °C

O=S1(=O)NS(=O)(=O)C(F)(F)C(F)(F)C1(F)F [hexafluorocyclopropane-1,3-bis(sulfonyl)imide]
pKa [2]: −0.8

CCCCCCCCCCCCCCCCCCn1ccnc1CCCCCCCCCCCCCCCCC.O=S(=O)(O)C(F)(F)C(F)(F)C(F)(F)C(F)(F)F [4A, nonafluorobutanesulfonic acid-1-octadecyl-2-heptadecyimidazole, reference compound]
Weight reduction temperature 5% [1]: 338.2 °C
Weight reduction temperature 10% [1]: 365.9 °C
Weight reduction temperature 20% [1]: 390.1 °C
Solubility, Fluorine-based solvent [3, 4]: less than 0.2% by mass
Solubility, n-Hexane [3, 5]: less than 0.5% by mass

CCCCCCCCCCCCCCCCCC[n+]1ccn(CCCC)c1.O=S1(=O)[N-]S(=O)(=O)C(F)(F)C(F)(F)C1(F)F [2A, hexafluorocyclopropane-1,3-bis(sulfonyl)imide-1-butyl-3-n-octadecylimidazolium, reference compound]
Weight reduction temperature 5% [1]: 347.2 °C
Weight reduction temperature 10% [1]: 367.0 °C
Weight reduction temperature 20% [1]: 387.8 °C
Solubility, Fluorine-based solvent [3]: less than 0.2% by mass
Solubility, n-Hexane [3]: less than 0.5% by mass
